Laboratory results from patent US5298494A, “Monosaccharides having anti-proliferation and anti-inflammatory activity, compositions and uses thereof” (Greenwich Pharmaceuticals Incorporated, priority 1993, dated 1994).
Where “and” joins values, the source holds several entries; their conditions need not be identical. Equal entries are not always repeated. Where two headings read alike, the source gives them in different places.

System: T lymphocytes (normal mouse spleen cells) stimulated with ConA
Assay: Mouse Spleen Cell ConA Blastogenesis Assay
Format: cell-based, mouse (C57Bl/6)
Conditions: for inhibition at 0.01 µg/mL / inhibition at 0.001 µg/mL / inhibition at 0.1 µg/mL / inhibition at 1 µg/mL / inhibition at 2.5 µg/mL / inhibition at 10 µg/mL / inhibition at 25 µg/mL / inhibition at 100 µg/mL / inhibition at 300 µg/mL / inhibition at 750 µg/mL: Mus musculus, T-lymphocyte; for inhibition at 0.01 µg/mL: 0.01 ug/ml, read-out: % Change from Control (Table II); for inhibition at 0.001 µg/mL / inhibition at 0.1 µg/mL / inhibition at 1 µg/mL / inhibition at 2.5 µg/mL / inhibition at 10 µg/mL / inhibition at 25 µg/mL / inhibition at 100 µg/mL / inhibition at 300 µg/mL / inhibition at 750 µg/mL: read-out: % change from control, ConA blastogenic response; for inhibition at 300 µg/mL: compound 300 ug/ml; for inhibition at 750 µg/mL: compound 750 ug/ml
Excerpt: It is well known that several plant lectins, when cultured in vitro with lymphocytes, stimulate cellular activation and proliferation. Concanavolin, (ConA) selectively stimulates the blastogenic response of T lymphocytes.
Six to 8 week old male C57Bl/6 mice were purchased from Harlan Sprague Dawley (Indianapolis, Ind.).
Spleens were removed and were homogenized to obtain a single cell suspension. Erythrocytes were lysed by hypotonic shock. Upon determination of the viability and concentration of the lymphoid cells, they were adjusted to 4×10^6 cells/ml in culture medium (RPMI-1640) supplemented with 10% fetal bovine serum; 100 ug/ml streptomycin; 100 U/ml penicillin, 0.2M hepes buffer; 5×10^-5 M 2-mercaptoethanol and 2 mM glutamine). seeded into microtiter plate wells at 2×10^5 cells/0.050 ml/well. To these cultures were added various doses of experimental compounds and ConA at a final concentration of 4 or 1 ug/ml. Control cultures consisted of cells, ConA and culture medium containing the vehicle, DMSO only. […] For the testing of the methyl 1,3-O-isopropylidene-6-O-n-heptyl-α-D-fructofuranoside compound indomethacin and NDGA were used as controls. All cultures were run in triplicate.
Solutions of compounds of the invention in DMSO were prepared and dilutions were made in culture medium. Assay concentrations were either: 1, 2.5, 10, 25, 100, 300 and 750 ug/ml or 0.001, 0.01, 0.1, 1, 2.5, 10, 25 and 100 ug/ml.
Cultures were incubated for 3 days at 37° C. in a humidified atmosphere of 5% of CO2 in air. For the last 18 hours of culture, 1 uCi of ^3 H-thymidine was also incubated in each well. The cells were precipitated by a multi-channel harvester. The amount of ^3 H-thymidine incorporated by the cultures, as a measure of cell proliferation, was measured in a liquid scintillation counter. The amount of radioactive incorporation is proportional to the amount of cellular proliferation in individual wells. The students T test was used to determine the significance of the difference between experimental and control values.

[1] = ConA 1 ug/ml, compound 0.001 ug/ml
[2] = ConA 1 ug/ml, compound 0.1 ug/ml
[3] = ConA 1 ug/ml, compound 2.5 ug/ml
[4] = ConA 1 ug/ml, compound 10 ug/ml
[5] = ConA 1 ug/ml, compound 25 ug/ml
[6] = ConA 1 ug/ml, compound 100 ug/ml
[7] = ConA 4 ug/ml, compound 0.001 ug/ml
[8] = ConA 4 ug/ml, compound 0.1 ug/ml
[9] = ConA 4 ug/ml, compound 2.5 ug/ml
[10] = ConA 4 ug/ml, compound 10 ug/ml
[11] = ConA 4 ug/ml, compound 25 ug/ml
[12] = ConA 4 ug/ml, compound 100 ug/ml

**Q.** What does the source list for `Cc1cn([C@H]2C[C@H](N=[N+]=[N-])[C@@H](CO)O2)c(=O)[nH]c1=O` [AZT, reference compound]?
**A.** Blastogenic response of normal spleen cells to Con-A [1]: 47.1 ± 4.5 × 10^-3 cpm; Blastogenic response of normal spleen cells to Con-A (ConA 1 ug/ml, compound 0.01 ug/ml): 36.7 ± 3.1 × 10^-3 cpm; Blastogenic response of normal spleen cells to Con-A [2]: 9.1 ± 5.8 × 10^-3 cpm; % change from control, ConA blastogenic response (ConA 1 ug/ml, compound 1 ug/ml): -99% and -96%; Blastogenic response of normal spleen cells to Con-A (ConA 1 ug/ml, compound 1 ug/ml): 1.7 ± 0.1 × 10^-3 cpm; % change from control, ConA blastogenic response [3]: -98%; Blastogenic response of normal spleen cells to Con-A [3]: 0.7 ± 0.3 × 10^-3 cpm; % change from control, ConA blastogenic response [4]: -100% and -99%; Blastogenic response of normal spleen cells to Con-A [4]: 0.5 ± 0.1 × 10^-3 cpm; % change from control, ConA blastogenic response [5]: -100% and -99%; Blastogenic response of normal spleen cells to Con-A [5]: 0.5 ± 0.2 × 10^-3 cpm; % change from control, ConA blastogenic response [6]: -100% and -99%; Blastogenic response of normal spleen cells to Con-A [6]: 0.3 ± 0.0 × 10^-3 cpm; Blastogenic response of normal spleen cells to Con-A [7]: 163.7 ± 8.0 × 10^-3 cpm; Blastogenic response of normal spleen cells to Con-A (ConA 4 ug/ml, compound 0.01 ug/ml): 158.1 × 10^-3 cpm; Blastogenic response of normal spleen cells to Con-A [8]: 24.5 ± 3.0 × 10^-3 cpm; % change from control, ConA blastogenic response (ConA 4 ug/ml, compound 1 ug/ml): -99% and -97%; Blastogenic response of normal spleen cells to Con-A (ConA 4 ug/ml, compound 1 ug/ml): 4.0 ± 1.5 × 10^-3 cpm; % change from control, ConA blastogenic response [9]: -100% and -99%; Blastogenic response of normal spleen cells to Con-A [9]: 1.9 ± 0.4 × 10^-3 cpm; % change from control, ConA blastogenic response [10]: -100% and -99%; Blastogenic response of normal spleen cells to Con-A [10]: 1.4 ± 0.4 × 10^-3 cpm; Blastogenic response of normal spleen cells to Con-A [11]: 1.3 ± 0.5 × 10^-3 cpm; % change from control, ConA blastogenic response [12]: -99% and -100%; Blastogenic response of normal spleen cells to Con-A [12]: 0.6 ± 0.1 × 10^-3 cpm; inhibition at 0.01 µg/mL (ConA 1 ug/ml): 7%; inhibition at 0.001 µg/mL [1]: 18%; inhibition at 0.1 µg/mL [2]: 93%; inhibition at 1 µg/mL (ConA 1 ug/ml, compound 1 ug/ml): 96%; inhibition at 2.5 µg/mL [3]: 98%; inhibition at 10 µg/mL [4]: 99%; inhibition at 25 µg/mL [5]: 99%; inhibition at 100 µg/mL [6]: 99%; inhibition at 0.01 µg/mL (ConA 4 ug/ml): 13%; inhibition at 0.001 µg/mL [7]: -5%; inhibition at 0.1 µg/mL [8]: 99%; inhibition at 1 µg/mL (ConA 4 ug/ml, compound 1 ug/ml): 97%; inhibition at 2.5 µg/mL [9]: 99%; inhibition at 10 µg/mL [10]: 99%; inhibition at 25 µg/mL [11]: 99%; inhibition at 100 µg/mL [12]: 100%

**Q.** What does the source list for `CCCCCCCSC[C@H]1OC(C)(C)O[C@@H]2[C@H]3OC(C)(C)O[C@H]3O[C@@H]21` [IIIn, 1,2:3,5-Di-O-Isopropylidene-6-deoxy-6-thio-n-heptyl-β-D-glucofuranose]?
**A.** inhibition at 1 µg/mL (ConA 1 ug/ml, compound 1 ug/ml): 4%; inhibition at 10 µg/mL [4]: 29%; inhibition at 25 µg/mL [5]: 27%; inhibition at 100 µg/mL [6]: 84%; inhibition at 300 µg/mL (ConA 1 ug/ml): 99%; inhibition at 750 µg/mL (ConA 1 ug/ml): 99%; inhibition at 1 µg/mL (ConA 4 ug/ml, compound 1 ug/ml): -1%; inhibition at 10 µg/mL [10]: 12%; inhibition at 25 µg/mL [11]: 16%; inhibition at 100 µg/mL [12]: 76%; inhibition at 300 µg/mL (ConA 4 ug/ml): 99%; inhibition at 750 µg/mL (ConA 4 ug/ml): 98%; strong antiproliferative effect on ConA blastogenic response (concentration not given): greater than -50 % of control
